Measured values as given in PubChem BioAssay (NCI).
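A five-concentration, 48-hour dose response in 96-well plates underlies each endpoint, interpolated linearly between surrounding concentrations. TGI: concentration producing complete growth inhibition.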

Tests used:
Experiment in all cases: NCI-60 cell line screen, 48 h
786-0 renal = test system: 786-0 renal
A498 renal = test system: A498 renal
A549 NSCLC = test system: A549 NSCLC
ACHN renal = test system: ACHN renal
BT-549 breast = test system: BT-549 breast
CAKI-1 renal = test system: CAKI-1 renal
CCRF-CEM leukemia = test system: CCRF-CEM leukemia
COLO 205 colon = test system: COLO 205 colon
DU-145 prostate = test system: DU-145 prostate
HCT-116 colon = test system: HCT-116 colon
HCT-15 colon = test system: HCT-15 colon
HOP-62 NSCLC = test system: HOP-62 NSCLC
HOP-92 NSCLC = test system: HOP-92 NSCLC
HS 578T breast = test system: HS 578T breast
HT29 colon = test system: HT29 colon
IGROV1 ovarian = test system: IGROV1 ovarian
K-562 leukemia = test system: K-562 leukemia
KM12 colon = test system: KM12 colon
LOX IMVI melanoma = test system: LOX IMVI melanoma
M14 melanoma = test system: M14 melanoma
MALME-3M melanoma = test system: MALME-3M melanoma
MCF7 breast = test system: MCF7 breast
MDA-MB-231 breast = test system: MDA-MB-231 breast
MDA-MB-435 = test system: MDA-MB-435
MDA-N = test system: MDA-N
MOLT-4 leukemia = test system: MOLT-4 leukemia
NCI-H226 lung = test system: NCI-H226 lung
NCI-H23 lung = test system: NCI-H23 lung
NCI-H460 lung = test system: NCI-H460 lung
NCI-H522 lung = test system: NCI-H522 lung
NCI/ADR-RES ovarian = test system: NCI/ADR-RES ovarian
OVCAR-3 ovarian = test system: OVCAR-3 ovarian
OVCAR-4 ovarian = test system: OVCAR-4 ovarian
OVCAR-5 ovarian = test system: OVCAR-5 ovarian
OVCAR-8 ovarian = test system: OVCAR-8 ovarian
PC-3 prostate = test system: PC-3 prostate
RXF 393 renal = test system: RXF 393 renal
SF-268 CNS = test system: SF-268 CNS
SF-295 CNS = test system: SF-295 CNS
SF-539 CNS = test system: SF-539 CNS
SK-MEL-2 melanoma = test system: SK-MEL-2 melanoma
SK-MEL-28 melanoma = test system: SK-MEL-28 melanoma
SK-MEL-5 melanoma = test system: SK-MEL-5 melanoma
SK-OV-3 ovarian = test system: SK-OV-3 ovarian
SN12C renal = test system: SN12C renal
SNB-19 CNS = test system: SNB-19 CNS
SNB-75 CNS = test system: SNB-75 CNS
SR leukemia = test system: SR leukemia
SW-620 colon = test system: SW-620 colon
T-47D breast = test system: T-47D breast
TK-10 renal = test system: TK-10 renal
U251 CNS = test system: U251 CNS
UACC-257 melanoma = test system: UACC-257 melanoma
UACC-62 melanoma = test system: UACC-62 melanoma
UO-31 renal = test system: UO-31 renal
EKVX NSCLC = test system: EKVX NSCLC
RPMI-8226 leukemia = test system: RPMI-8226 leukemia

COc1cc(S(=O)(=O)Nc2nc(-c3ccc(N4C(=O)/C(=C/c5ccccc5)N=C4c4ccccc4)cc3)cs2)ccc1Cl
TGI (786-0 renal): > 100 µM | TGI (A498 renal): > 100 µM | TGI (A549 NSCLC): > 100 µM | TGI (ACHN renal): > 100 µM | TGI (BT-549 breast): 75 µM | TGI (CAKI-1 renal): > 100 µM | TGI (CCRF-CEM leukemia): > 100 µM | TGI (COLO 205 colon): > 100 µM | TGI (DU-145 prostate): > 100 µM | TGI (HCT-116 colon): > 100 µM | TGI (HCT-15 colon): > 100 µM | TGI (HOP-62 NSCLC): > 100 µM | TGI (HOP-92 NSCLC): > 100 µM | TGI (HS 578T breast): 93.6 µM | TGI (HT29 colon): > 100 µM | TGI (IGROV1 ovarian): > 100 µM | TGI (K-562 leukemia): > 100 µM | TGI (KM12 colon): > 100 µM | TGI (LOX IMVI melanoma): > 100 µM | TGI (M14 melanoma): > 100 µM | TGI (MALME-3M melanoma): 83.6 µM | TGI (MCF7 breast): > 100 µM | TGI (MDA-MB-231 breast): 70.1 µM | TGI (MDA-MB-435): > 100 µM | TGI (MDA-N): > 100 µM | TGI (MOLT-4 leukemia): > 100 µM | TGI (NCI-H226 lung): > 100 µM | TGI (NCI-H23 lung): 80.4 µM | TGI (NCI-H460 lung): > 100 µM | TGI (NCI-H522 lung): > 100 µM | TGI (NCI/ADR-RES ovarian): > 100 µM | TGI (OVCAR-3 ovarian): > 100 µM | TGI (OVCAR-4 ovarian): > 100 µM | TGI (OVCAR-5 ovarian): > 100 µM | TGI (OVCAR-8 ovarian): > 100 µM | TGI (PC-3 prostate): > 100 µM | TGI (RXF 393 renal): 91.7 µM | TGI (SF-268 CNS): > 100 µM | TGI (SF-295 CNS): > 100 µM | TGI (SF-539 CNS): > 100 µM | TGI (SK-MEL-2 melanoma): 84.8 µM | TGI (SK-MEL-28 melanoma): > 100 µM | TGI (SK-MEL-5 melanoma): > 100 µM | TGI (SK-OV-3 ovarian): > 100 µM | TGI (SN12C renal): > 100 µM | TGI (SNB-19 CNS): > 100 µM | TGI (SNB-75 CNS): > 100 µM | TGI (SR leukemia): > 100 µM | TGI (SW-620 colon): > 100 µM | TGI (T-47D breast): > 100 µM | TGI (TK-10 renal): > 100 µM | TGI (U251 CNS): > 100 µM | TGI (UACC-257 melanoma): > 100 µM | TGI (UACC-62 melanoma): 50.8 µM | TGI (UO-31 renal): > 100 µM

NC(Cc1nn[nH]n1)C(=O)O (stereo unspecified)
TGI (786-0 renal): > 100 µM | TGI (A498 renal): > 100 µM | TGI (A549 NSCLC): > 100 µM | TGI (ACHN renal): > 100 µM | TGI (BT-549 breast): > 100 µM | TGI (CAKI-1 renal): > 100 µM | TGI (CCRF-CEM leukemia): > 100 µM | TGI (COLO 205 colon): > 100 µM | TGI (DU-145 prostate): > 100 µM | TGI (EKVX NSCLC): > 100 µM | TGI (HCT-116 colon): > 100 µM | TGI (HCT-15 colon): > 100 µM | TGI (HOP-62 NSCLC): > 100 µM | TGI (HOP-92 NSCLC): > 100 µM | TGI (HS 578T breast): > 100 µM | TGI (HT29 colon): > 100 µM | TGI (IGROV1 ovarian): > 100 µM | TGI (K-562 leukemia): > 100 µM | TGI (KM12 colon): > 100 µM | TGI (LOX IMVI melanoma): > 100 µM | TGI (M14 melanoma): > 100 µM | TGI (MALME-3M melanoma): > 100 µM | TGI (MCF7 breast): > 100 µM | TGI (MDA-MB-231 breast): > 100 µM | TGI (MDA-MB-435): > 100 µM | TGI (MDA-N): > 100 µM | TGI (MOLT-4 leukemia): > 100 µM | TGI (NCI-H226 lung): > 100 µM | TGI (NCI-H23 lung): > 100 µM | TGI (NCI-H460 lung): > 100 µM | TGI (NCI-H522 lung): > 100 µM | TGI (NCI/ADR-RES ovarian): > 100 µM | TGI (OVCAR-3 ovarian): > 100 µM | TGI (OVCAR-4 ovarian): > 100 µM | TGI (OVCAR-5 ovarian): > 100 µM | TGI (OVCAR-8 ovarian): > 100 µM | TGI (PC-3 prostate): > 100 µM | TGI (RPMI-8226 leukemia): > 100 µM | TGI (RXF 393 renal): > 100 µM | TGI (SF-268 CNS): > 100 µM | TGI (SF-295 CNS): > 100 µM | TGI (SF-539 CNS): > 100 µM | TGI (SK-MEL-2 melanoma): > 100 µM | TGI (SK-MEL-28 melanoma): > 100 µM | TGI (SK-MEL-5 melanoma): > 100 µM | TGI (SK-OV-3 ovarian): > 100 µM | TGI (SN12C renal): > 100 µM | TGI (SNB-19 CNS): > 100 µM | TGI (SNB-75 CNS): > 100 µM | TGI (SR leukemia): > 100 µM | TGI (SW-620 colon): > 100 µM | TGI (T-47D breast): > 100 µM | TGI (TK-10 renal): > 100 µM | TGI (U251 CNS): > 100 µM | TGI (UACC-257 melanoma): > 100 µM | TGI (UACC-62 melanoma): > 100 µM
